# *1 amine or outer side, *2 acyl side, *3 side chain or, on linkers, in order; H or OH if unused. Where a SMILES comes first, the peptide text is derived from it. [ ]: non-standard residue; d: D form. X1 = O=C(CCc1cccc2c1oc1c(CCN[*:1])cccc12)[*:2]
# Key:
# [1] = target: T1, CD2–CD58 interaction (adhesion between T cells (Jurkat, CD2) and Caco-2 cells (CD58)) (Homo sapiens, UniProt P19256); experiment: Lymphocyte-epithelial adhesion assay; type: cell-based; details: concentration range 0.0005 to 150 µM
# T1 sequence (P19256 29-250): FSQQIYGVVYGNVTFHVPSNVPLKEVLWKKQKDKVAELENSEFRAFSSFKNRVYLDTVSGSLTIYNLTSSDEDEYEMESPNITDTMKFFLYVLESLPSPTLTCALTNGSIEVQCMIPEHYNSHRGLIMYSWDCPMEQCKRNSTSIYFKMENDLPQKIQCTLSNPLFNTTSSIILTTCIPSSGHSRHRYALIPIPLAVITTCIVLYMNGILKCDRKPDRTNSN
# Jurkat cells = experiment: CellTiter-Glo cell viability assay, Jurkat cells
# Caco-2 cells = experiment: CellTiter-Glo cell viability assay, Caco-2 cells
Compound,cell adhesion inhibition in the lymphocyte epithelial assay [1],toxicity effects on T cells (Jurkat cells),toxicity effects on Caco-2 cells (Caco-2 cells)
KGKTDAISVKAI-NH2 [control peptide],~18%,–,–
CC[C@H](C)[C@@H]1NC(=O)[C@H](Cc2ccc(O)cc2)NC(=O)[C@H](CC(=O)O)NC(=O)CCc2cccc3c2Oc2c(cccc2-3)CCNC(=O)[C@H](CC(=O)O)NC(=O)[C@H](CC(=O)O)NC(=O)[C@H](CCCCN)NC1=O [Peptide 7] (cyclo(DD[X1]DYIK)),–,did not show any toxicity effects,did not show any toxicity effects

# From article PMC3171192 (Journal of medicinal chemistry, 2011)
